This passage reports IC50 results from BindingDB's records for doi:10.1016/j.bmcl.2014.03.015 (Jiangnan University, 2014).

SMILES strings stand for the structures.

For orientation: IC50 means the point on the concentration scale where inhibition reaches its midpoint. High values mean weaker potency, low ones greater potency.

The target of the assay is T1, Tyrosine-protein phosphatase non-receptor type 11 (Homo sapiens, UniProt Q06124).
T1 sequence (Q06124 whole entry): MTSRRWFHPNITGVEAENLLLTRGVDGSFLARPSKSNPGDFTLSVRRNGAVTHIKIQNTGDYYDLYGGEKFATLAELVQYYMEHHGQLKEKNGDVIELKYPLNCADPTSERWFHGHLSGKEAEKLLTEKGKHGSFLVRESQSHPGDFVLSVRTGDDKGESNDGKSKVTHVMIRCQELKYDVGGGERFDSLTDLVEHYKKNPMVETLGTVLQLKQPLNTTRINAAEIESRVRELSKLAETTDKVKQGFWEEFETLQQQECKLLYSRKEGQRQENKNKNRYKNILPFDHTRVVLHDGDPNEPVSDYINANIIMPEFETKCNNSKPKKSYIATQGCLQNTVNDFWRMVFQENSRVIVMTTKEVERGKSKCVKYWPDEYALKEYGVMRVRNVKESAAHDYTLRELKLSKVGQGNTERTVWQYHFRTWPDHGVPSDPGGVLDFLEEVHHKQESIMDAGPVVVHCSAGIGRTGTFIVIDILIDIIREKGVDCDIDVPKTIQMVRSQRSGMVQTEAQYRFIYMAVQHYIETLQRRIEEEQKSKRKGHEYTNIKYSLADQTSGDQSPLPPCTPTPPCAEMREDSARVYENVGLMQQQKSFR
Briefly: pNPP assay.

As to `[O]=[V]([OH])([OH])[OH]`, the IC50 turned out to be 34.7 µM.

The molecule `O=C(Nc1ccc(-c2ccc(NC(=O)c3ccc(F)cc3)cn2)cc1)c1ccc(F)cc1` [4-fluoro-N-(6-(4-(4-fluorobenzamido)phenyl)pyridin-3-yl)benzamide (29)] returned an IC50 of 19.7 µM.
